This is an account of results in patent US12138299B2, “Aldehyde dehydrogenase producing bacteria and methods of using same” (Children's Hospital Medical Center, priority 2021, dated 2024).

One assay relates to SFB. In words: SFB DNA in feces by qPCR. Type of assay: in vivo, mice. (In general: Quantitative PCR measures a nucleic acid by following its amplification.)
Assay [1] deals with C. rodentium. In words: C. rodentium infection, CFUs in stool. Format: in vivo, mice. The note with it: day 6 p.i. As for the experimental part: (§1) METHOD DETAILS C. rodentium infections Mice were orally infected with 109 colony-forming units (CFUs) of C. rodentium suspended in sterile PBS. Post-infection CFUs were measured in stool homogenized in 500 μl PBS in a Tissue Lyser II at 30 Hz for 3 min. Homogenates were serially diluted 10-fold on MacConkey agar (BD) and CFUs were counted after 16 hr incubation at 37° C., normalized to fecal weight. For RA studies, mice were orally gavaged with 300 μg RA or vehicle (DMSO) in 100 μl corn oil q.d. 5 days prior to and during the infection. For RAR inhibitor (RARi) studies, 400 μg BMS493 (Torcis Bioscience) suspended in 10% DMSO/corn oil was administered to mice via oral gavage q.o.d. over 6 days pre-infection and 6 days post-infection. For Aldh1a2 inhibition, mice were orally gavaged with 400 mg/kg of WIN 18446 (Cayman Chemical) or vehicle (DMSO) in 100 μl corn oil for 8 days q.o.d.

Assay [2] has as its system C. rodentium. In words: C. rodentium in vitro culture, bacterial density (OD600). Type of assay: cell-based, Citrobacter rodentium. The conditions noted are these: 1 nM-10 μM RA.
In the next assay the test system is mammalian ALDH. Description: Aldehyde dehydrogenase activity in mouse tissues. Format: in vivo. The note with it: liver of mice treated with WIN18446, 400 mg/kg oral gavage q.o.d. 8 days. The procedure: as §1, with “For Aldh1a2 inhibition, mice were orally gavaged with 400 mg/kg of WIN 18446 (Cayman Chemical) or vehicle (DMSO) in 100 μl corn oil for 8 days q.o.d.” left out
Aldehyde dehydrogenase activity Samples were homogenized in ice-cold ALDH assay buffer (Sigma, MAK082) for 3 min at 30 Hz and spun down at 13,000×g for 10 min. ALDH activity was measured according to manufacturer's instructions (Sigma, MAK082). Briefly, 50 μl of supernatants with equal protein concentrations determined using Pierce BCA Protein Assay Kit (Thermo Scientific) were combined with ALDH substrate and acetaldehyde in 96-well plates. […] Enzymatic activity was calculated as a function of amount NADH generated over time.

In assay [3] the test system is downstream gene expression. In words: Relative mRNA expression in liver of WIN18446-treated mice. Type of assay: in vivo. The note with it: mice treated with WIN18446. The procedure: as §1
In the next assay the test system is Saa1/2. Description: Saa1/2 mRNA expression in intestinal organoids. Format: cell-based, Murine. The note with it: 1 μM WIN 18446. As for the experimental part: Intestinal Organoids Murine organoids were generated from ileal IECs isolated from male WT C57BL/6J mice as previously described (Woo et al., 2019; Wu et al., 2020). Dissected terminal ileums (12 cm) were opened longitudinally, scraped to remove intestinal contents and outer cells, washed repeatedly in ice-cold PBS, and cut into 1 cm pieces. Ileum pieces were incubated in Chelation Buffer (2 mM EDTA in PBS) for 30 min at 4° C. with rotation. Tissues were subsequently transferred into new tubes containing Shaking Buffer (PBS, 43.3 mM sucrose, 54.9 mM sorbitol) and gently shaken by hand for 2-4 mins. Ileal crypts were resuspended and plated in Matrigel (Corning) overlaid with 500 μl organoid culture media (60% Advanced DMEM/F12 media supplemented with 10 mM HEPES, 2 mM […], 40% L-WRN conditioned media, 1×N2 supplement, 1×B27 supplement, 50 ng/mL murine EGF, and 10 μM Y-27632 ROCK inhibitor). Culture media was refreshed every 3-4 days. Organoid cultures were treated with 1 μM Aldh1a2 inhibitor WIN 18446 (Cayman Chemical) for 12 hours and then stimulated with 100 μl of SFB contents at 150 mg/ml PBS for 24 hours. For bacterial culture treatments in organoids, 100 μl of liquid cultures were directly added to organoids containing 1 μM retinol for 24 hours. After incubation, organoids were washed 3 times in PBS and lysed using the RNeasy kit (Qiagen).

A further assay has as its system bcALDH1A1. Description: Expression of ALDH by B. cereus cultured -/+ ROL. The note with it: B. cereus cultured with retinol.

For `CC1(C)CC=C(C#Cc2ccccc2)c2cc(/C=C/c3ccc(C(=O)O)cc3)ccc21` [BMS493], the “SFB colonization (SFB DNA in feces)” value in the assay on SFB (RARi (BMS493) treatment, 400 μg oral gavage q.o.d.) is listed as “did not alter SFB colonization”. Besides, in the assay on C. rodentium [1] (GF mice treated with RARi), the “C. rodentium pathogen levels (CFUs in stool)” value is given as “largely unaffected”. Also, the “Protective effect of SFB against C. rodentium (CFUs in stool)” value with C. rodentium [1] (SFB-colonized mice treated with RARi) is “abrogated the protective effect of SFB against C. rodentium”.

As to `CC1=C(/C=C/C(C)=C/C=C/C(C)=C/C(=O)O)C(C)(C)CCC1` [RA, all-trans retinoic acid], the “C. rodentium growth and viability” value in the assay on C. rodentium [2] is “not directly impaired”. Also, the “Protection against C. rodentium (CFUs in stool)” value in the assay with C. rodentium [1] (GF mice, 300 μg RA oral gavage q.d. prior to and during infection) is “sufficient to protect GF mice against C. rodentium”. In the assay on C. rodentium [1] (Nos2−/− mice, exogenous RA), the “C. rodentium pathogen levels (CFUs in stool)” value was “did not alter pathogen levels”. Besides, the “C. rodentium infection (CFUs in stool)” value is on record as “decreased C. rodentium infection” with C. rodentium [1] (WT mice, exogenous RA) and “decreased infection” in the assay on C. rodentium [1] (control dnRAR^FF mice, RA-treatment). Moreover, the “RA-induced protection against C. rodentium” value in the assay on C. rodentium [1] (dnRAR^IEC mice, RA-treatment) was “greatly reduced”.

With `O=C(NCCCCCCCCNC(=O)C(Cl)Cl)C(Cl)Cl` [WIN18446], the “SFB levels in the intestine (SFB DNA in feces)” value with SFB (following WIN18446 administration) is on record as “similar”. In addition, the “Mammalian ALDH enzymatic activity” value with mammalian ALDH was “decreased mammalian ALDH enzymatic activity”. Also, the “Downstream gene expression (relative mRNA in liver)” value in assay [3] is on record as “decreased”. Also, the “Basal Saa1/2 expression in intestinal organoids” value with Saa1/2 was “decreased basal Saa1/2 expression”.

In the case of `CC1=C(/C=C/C(C)=C/C=C/C(C)=C/CO)C(C)(C)CCC1` [retinol, all-trans retinol], in the assay on bcALDH1A1, the “bcALDH1A1 expression by B. cereus” value was “increased bcALDH1A1 expression”.
